Assay results from patent publication US5114936A, “6,7-dihydro-3-phenyl-1,2-benzisoxazol-4(5H)-ones and -ols, compositions and pharmaceutical use” (Hoechst-Roussel Pharmaceuticals Incorporated, priority 1991, dated 1992).
Where a name gives a salt, the structure may show the parent alone.

Experiments:
apomorphine climbing = experiment: Climbing Mice Assay (antagonism of apomorphine-induced climbing); format: in vivo, mice (CK-1 male mice); conditions: Mus musculus; ip; apomorphine 1.5 mg/kg subcutaneously
Experimental: Antipsychotic activity is determined in the Climbing Mice Assay by a method similar to that described by P. Protais, et al., Psychopharmacol., 50, 1 (1976) and B. Costall, Eur. J. Pharmacol., 50, 39 (1978).
The subject CK-1 male mice (23-27 grams) are group-housed under standard laboratory conditions. The mice are individually placed in wire mesh stick cages (4"×4"×10") and are allowed one hour for adaptation and exploration of the new environment. Then apomorphine is injected subcutaneously at 1.5 mg/kg, a dose causing climbing in all subjects for 30 minutes.
Compounds to be tested for antipsychotic activity are injected intraperitoneally or given orally at various time intervals, e.g. 30 minutes, 60 minutes, etc. prior to the apomorphine challenge at a screening dose of 10-60 mg/kg.
For evaluation of climbing, 3 readings are taken at 10, 20 and 30 minutes after apomorphine administration according to the following scale:
4 paws on bottom (no climbing)
2 paws on the wall (rearing)
4 paws on the wall (full climb)
Mice consistently climbing before the injection of apomorphine will be discarded.
With full-developed apomorphine climbing, the animals are hanging on to the cage walls, rather motionless, over longer periods of time. By contrast, climbs due to mere motor stimulation usually only last a few seconds.
The climbing scores are individually totaled (maximal score: 6 per mouse over 3 readings) and the total score of the control group (vehicle intraperitoneally-apomorphine subcutaneously) is set to 100%. ED50 values with 95% confidence limits, calculated by a linear regression analysis, of some of the compounds of the instant invention as well as a standard antipsychotic agent are presented in Table I.

[1] = system: phenyl-p-quinone writhing; experiment: phenyl-p-quinone writhing assay (analgesia); format: in vivo, mice; conditions: Mus musculus, sc; s.c; read-out: ED50 Inhibition of Writhing
Source text: Exptl. Biol. Med. 95, 729 (1957)]

Row | Compound | ED50 (apomorphine climbing) [mg/kg] | ED50 [1] [mg/kg]
1 | O=C(c1ccc(F)cc1)C1CCN(CCCC2CCc3onc(-c4ccc(F)cc4)c3C2=O)CC1 (stereo not drawn) [Example 20, 6,7-Dihydro-5-[3-(4-(4-fluorobenzoyl)-1-piperidinyl)-propyl]-3-(4-fluorophenyl)-1,2-benzisoxazol-4(5H)-one hydrochloride] | 6.2 | 
2 | CN1CCN(C2=Nc3cc(Cl)ccc3Nc3ccccc32)CC1 [clozapine, reference compound] | 9 | 
3 | COc1ccccc1N1CCN(CCCC2CCc3onc(-c4ccccc4)c3C2=O)CC1 (stereo not drawn) [Example 14, 6,7-Dihydro-5-[3-(4-(2-methoxyphenyl)-1-piperazinyl)-propyl]-3-phenyl-1,2-benzisoxazol-4(5H)-one dihydrochloride] | 15 | 5.18
4 | O=C(c1ccc(F)cc1)C1CCN(CCCC2CCc3onc(-c4ccccc4)c3C2=O)CC1 (stereo not drawn) [Example 15, 6,7-Dihydro-5-[3-(4-(4-fluorobenzoyl)-1-piperidinyl)-propyl]-3-phenyl-1,2-benzisoxazol-4(5H)-one hydrochloride] |  | 3.99
5 | Cl.O=C1c2c(-c3ccccc3)noc2CCC1CCCN1CCC(c2ccc(F)cc2)CC1 (stereo not drawn) [6,7-dihydro-5-[3-(4-(4-fluorophenyl)-1-piperidinyl)-propyl]-3-phenyl-1,2-benzisoxazol-4(5H)-one hydrochloride] | 6.36 | 
6 | Cl.O=C(c1ccc(F)cc1)C1CCN(CCCC2CCc3onc(-c4ccccc4F)c3C2=O)CC1 (stereo not drawn) [Example 19, 6,7-Dihydro-5-[3-(4-(4-fluorobenzoyl)-1-piperidinyl)-propyl]-3-(2-fluorophenyl)-1,2-benzisoxazol-4(5H)-one hydrochloride] | 2.9 | 
7 | O=C(c1ccc(F)cc1)C1CCN(CCCC2CCc3onc(-c4cccc(F)c4)c3C2=O)CC1 (stereo not drawn) [Example 26, 6,7-Dihydro-5-[3-(4-(4-fluorobenzoyl)-1-piperidinyl)-propyl]-3-(3-fluorophenyl)-1,2-benzisoxazol-4(5H)-one hydrochloride] | 5.7 | 
8 | CCC(=O)O[C@](Cc1ccccc1)(c1ccccc1)[C@H](C)CN(C)C [propoxyphene, reference compound] |  | 3.9
